Laboratory results: US20090286883A1, “TREATMENT OF HEART FAILURE AND ASSOCIATED CONDITIONS BY ADMINISTRATION OF MONOAMINE OXIDASE INHIBITORS” (Universita' degli Studi di Padova (University of Padua), priority 2008, published 2009)
Several values for one entry are separate records, joined by “and”; a condition that tells them apart may be missing. Equal entries are not always repeated.

How the values were obtained:
[1] = tested on: HL-1 cardiomyocytes; experiment: Oxidative stress (mitochondrial ROS production) upon H2O2 or arachidonic acid; format: cell-based; conditions: for Levels of oxidative stress, Arachidonic acid (% increase vs control): 5 μM arachidonic acid, no treatment 145.6 ± 3.8; for Levels of oxidative stress, Arachidonic acid (% increase vs control) / Levels of oxidative stress, H2O2 (% increase vs control): clorgyline 1 μM; for Levels of oxidative stress, H2O2 (% increase vs control): 100 μM H2O2, no treatment 156.2 ± 4.3; for rise in ROS production / protection: H2O2 or arachidonic acid stimulated HL-1 cardiomyocytes, cell pretreatment
Method: In vivo, mitochondria and the respiratory chain, in particular, are considered a major intracellular ROS source^15. MAOs are located in the outer membrane of these organelles and MAO-A can increase oxidative burden. When HL-1 cardiomyocytes were incubated with 100 μM H2O2 or 5 μM arachidonic acid, a rise in ROS production at mitochondrial level was observed (Table 6).

[2] = tested on: neonatal rat cardiomyocytes; experiment: MAO-A and BNP gene expression after NE in absence or presence of clorgyline; format: cell-based
From the text: This process may contribute to the development of […]

[3] = tested on: myocytes; experiment: EMT gene expression upon stimulation with tyramine; format: cell-based; conditions: tyramine 10 μM
[4] = tested on: cardiomyocytes; experiment: NFAT4 gene expression upon stimulation with tyramine in absence or presence of clorgyline; format: cell-based
[5] = tested on: caspase-3; experiment: Cleaved caspase-3 levels after 6 weeks of TAC; format: in vivo; conditions: 6 weeks TAC mice, FIG. 1
From the text: Levels of cleaved caspase-3 were markedly elevated after 6 weeks in TAC mice vs shams.

[6] = tested on: TAC-induced pressure overload; experiment: Transverse aortic constriction (TAC) pressure overload in mice, cardiac morphology and in vivo ventricular function; conditions: for EF (ejection fraction) / FS (fractional shortening) / Heart rate / IVS (interventricular septum) / LV mass/BW / LVEDD (left ventricular end-diastolic dimension) / LVESD (left ventricular end-systolic dimension) / LVPW (left ventricular posterior wall): clorgyline 1 mg/kg/day

## C#CCN(C)[C@H](C)Cc1ccccc1 [deprenyl]
[1]
  Levels of oxidative stress, Arachidonic acid (% increase vs control): 142.4 ± 0.3 % increase vs control
  Levels of oxidative stress, H2O2 (% increase vs control): 150.7 ± 4.9 % increase vs control
  rise in ROS production / protection: No protection

## NC[C@H](O)c1ccc(O)c(O)c1 [NE, norepinephrine]
[2]; NE 10 μM for 24 hrs
  MAO-A gene expression and hypertrophy (BNP expression): up-regulation of MAO-A gene expression and induction of hypertrophy
[2]; NE 10 μM, 24 hrs, control 0.58 ± 0.05
  MAO-A (vs GAPDH) gene expression: 1.85 ± 0.04
[2]; NE 10 μM, 24 hrs, control 1 ± 0
  BNP (vs GAPDH) gene expression: 8.9 ± 1.4

## NCCc1ccc(O)cc1 [tyramine]
[3]
  increase in EMT gene expression: 2 fold
[3]; control 0.5 ± 0.04
  EMT/GAPDH gene expression: 0.97 ± 0.2
[4]; tyramine incubation of cardiomyocytes
  increase of NFAT4 expression: 2 fold
[4]; tyramine, −clorgyline, control 0.24 ± 0.03
  NFAT4 gene expression (normalized to GAPDH): 0.38 ± 0.01

## C#CCN(C)CCCOc1ccc(Cl)cc1Cl [clorgyline]
[5]
  caspase-3 activation (cleaved caspase-3): prevented caspase-3 activation
[2]; NE 10 μM 24 hrs in presence of clorgyline, NE alone 8.9 ± 1.4
  BNP (vs GAPDH) gene expression: 4.85 ± 0.9 ^#
[4]; Control (no tyramine), +clorgyline
  NFAT4 gene expression (normalized to GAPDH): 0.23 ± 0.02
[4]; Tyramine, +clorgyline (preincubation)
  NFAT4 gene expression (normalized to GAPDH): 0.32 ± 0.02
[4]; preincubation with clorgyline prior to tyramine treatment
  effect on tyramine-induced increase of NFAT4 expression: reduced this effect significantly
[1]
  Levels of oxidative stress, Arachidonic acid (% increase vs control): 98.3 ± 1.3 % increase vs control
  Levels of oxidative stress, H2O2 (% increase vs control): 122.6 ± 3 % increase vs control
  rise in ROS production / protection: completely prevented, or reduced
[6]; TAC 3 weeks
  EF (ejection fraction): 91.6 ± 0.4^C %
  FS (fractional shortening): 56.8 ± 1.9^C %
  Heart rate: 702 ± 12 bpm
  IVS (interventricular septum): 1.3 ± 0.02^B mm
  LV mass/BW: 6.4 ± 0.3^B mg/g
  LVEDD (left ventricular end-diastolic dimension): 2.9 ± 0.06 mm
  LVESD (left ventricular end-systolic dimension): 1.2 ± 0.06 mm
  LVPW (left ventricular posterior wall): 1.2 ± 0.03^B mm
[6]; TAC 6 weeks
  Heart rate: 670 ± 13.7 bpm
  IVS (interventricular septum): 1.4 ± 0.03^B mm
  LV mass/BW: 7.2 ± 0.4^B, D mg/g
  LVEDD (left ventricular end-diastolic dimension): 3.0 ± 0.08^D mm
  LVESD (left ventricular end-systolic dimension): 1.2 ± 0.04^D mm
  LVPW (left ventricular posterior wall): 1.3 ± 0.03^B, D mm
[6]; TAC 6 weeks, listed as CLO
  EF (ejection fraction): 93.6±0.4% and 94.3 ± 0.4^D %
  FS (fractional shortening): 61±0.8% and 61.6 ± 0.9^D %
[6]; TAC, vs saline-treated TAC mice
  levels of hypertrophy (LV mass, LVEDD, LVESD): reduced
[6]; after 3 weeks of TAC, compared to sham operated animals
  wall thickness: increased
[6]; after 3 weeks of TAC, vs saline-treated TAC mice
  LV function: significantly better
[6]; at 6 weeks of TAC, vs saline-treated TAC mice
  LV function: improved
